# Laboratory results from ChEMBL document CHEMBL6092180 (Eur J Med Chem, 2024).
# Legend:
# Format in all cases: functional
# Cryptococcus neoformans = test: Antifungal activity against Cryptococcus neoformans CGMCC 2.3161 assessed as inhibition of fungal growth by CLSI M27-A3 guidelines based method
# Candida parapsilosis = test: Antifungal activity against Candida parapsilosis GIM 2.190 assessed as inhibition of fungal growth by CLSI M27-A3 guidelines based method; conditions: Lodderomyces parapsilosis
# Nakaseomyces glabratus = test: Antifungal activity against Candida glabrata assessed as inhibition of fungal growth by CLSI M27-A3 guidelines based method
# Pichia kudriavzevii = test: Antifungal activity against Candida krusei GIM 2.1 assessed as inhibition of fungal growth by CLSI M27-A3 guidelines based method
# Candida albicans [1] = test: Antifungal activity against Candida albicans GIM 2.194 assessed as inhibition of fungal growth by CLSI M27-A3 guidelines based method
# Candida albicans [2] = test: Antifungal activity against Candida albicans SC5314 assessed as inhibition of fungal growth by CLSI M27-A3 guidelines based method
# Candida tropicalis = test: Antifungal activity against Candida tropicalis GIM 2.183 assessed as inhibition of fungal growth by CLSI M27-A3 guidelines based method
SMILES,MIC80 (Cryptococcus neoformans) [µg/mL],MIC80 (Candida parapsilosis) [µg/mL],MIC80 (Nakaseomyces glabratus) [µg/mL],MIC80 (Pichia kudriavzevii) [µg/mL],MIC80 (Candida albicans [1]) [µg/mL],MIC80 (Candida albicans [2]) [µg/mL],MIC80 (Candida tropicalis) [µg/mL]
CN(Cc1ccc(C#Cc2ccc(Cl)cc2)cc1)CC(O)(Cn1cncn1)c1ccc(F)cc1F (stereo unspecified),0.013,0.006,0.05,0.03,0.013,0.006,0.013
CN(Cc1ccc(C#Cc2ncccn2)cc1)CC(O)(Cn1cncn1)c1ccc(F)cc1F (stereo unspecified),0.8,0.025,3.2,1.6,0.05,0.025,0.025
C[C@@H](N(C)Cc1ccc(C#Cc2ccc(OC(F)(F)F)cc2)cc1)[C@](O)(Cn1cncn1)c1ccc(F)cc1F,0.05,0.013,0.03,0.8,0.05,0.05,0.013
CN(Cc1ccc(C#Cc2cccc(I)c2)cc1)CC(O)(Cn1cncn1)c1ccc(F)cc1F (stereo unspecified),0.025,0.025,3.2,3.2,0.05,0.05,0.025
CN(Cc1ccc(C#Cc2cncnc2)cc1)CC(O)(Cn1cncn1)c1ccc(F)cc1F (stereo unspecified),0.4,0.025,3.2,0.8,0.05,0.025,0.025
COc1ccc(C#Cc2ccc(CN(C)CC(O)(Cn3cncn3)c3ccc(F)cc3F)cc2)cc1 (stereo unspecified),0.05,0.013,0.8,0.2,0.013,0.013,0.013
CN(Cc1ccc(C#Cc2ccccc2Br)cc1)CC(O)(Cn1cncn1)c1ccc(F)cc1F (stereo unspecified),0.013,0.006,0.4,0.03,0.006,0.013,0.013
Cc1ccccc1C#Cc1ccc(CN(C)CC(O)(Cn2cncn2)c2ccc(F)cc2F)cc1 (stereo unspecified),0.025,0.013,0.1,0.05,0.006,0.013,0.006
CN(Cc1ccc(C#Cc2ccc(-c3ccccc3)cc2)cc1)CC(O)(Cn1cncn1)c1ccc(F)cc1F (stereo unspecified),0.05,0.05,0.4,0.2,0.013,0.05,0.05
CN(Cc1ccc(C#Cc2cc(F)c(F)cc2F)cc1)CC(O)(Cn1cncn1)c1ccc(F)cc1F (stereo unspecified),0.013,0.006,0.01,0.03,0.006,0.006,0.006
C[C@@H](N(C)Cc1ccc(C#Cc2ccc(C(C)(C)C)cc2)cc1)[C@](O)(Cn1cncn1)c1ccc(F)cc1F,3.2,1.6,3.2,3.2,3.2,1.6,1.6
Cc1cccc(C#Cc2ccc(CN(C)CC(O)(Cn3cncn3)c3ccc(F)cc3F)cc2)c1 (stereo unspecified),0.025,0.013,0.4,0.8,0.013,0.013,0.025
CN(Cc1ccc(C#Cc2cccc(Cl)c2)cc1)CC(O)(Cn1cncn1)c1ccc(F)cc1F (stereo unspecified),0.013,0.006,0.2,0.01,0.006,0.013,0.013
CN(Cc1ccc(C#Cc2ccc(O)cc2)cc1)CC(O)(Cn1cncn1)c1ccc(F)cc1F (stereo unspecified),0.2,0.025,3.2,3.2,0.025,0.013,0.025
CN(Cc1ccc(C#Cc2ccc(C=O)cc2)cc1)CC(O)(Cn1cncn1)c1ccc(F)cc1F (stereo unspecified),0.05,0.013,0.1,0.05,0.013,0.013,0.013
CN(Cc1ccc(C#Cc2ccc([N+](=O)[O-])c(F)c2)cc1)CC(O)(Cn1cncn1)c1ccc(F)cc1F (stereo unspecified),0.025,0.006,0.01,0.01,0.006,0.006,0.006
CN(Cc1ccc(C#Cc2ccc(OC(F)(F)F)cc2)cc1)CC(O)(Cn1cncn1)c1ccc(F)cc1F (stereo unspecified),0.05,0.013,0.2,0.2,0.013,0.025,0.013
C[C@@H](N(C)Cc1ccc(C#Cc2ccc(C(F)(F)F)cc2)cc1)[C@](O)(Cn1cncn1)c1ccc(F)cc1F,0.05,0.013,0.05,0.1,0.05,0.025,0.013
